pIC50: −log10 of the molar value.
Molecular target: T1, human NaV1.8 (Homo sapiens, UniProt Q9Y5Y9)
T1 construct: expressed in transfected cells; host or cells: HEK
Assay: Electrophysiology: voltage-clamp recordings (whole-cell automated patch clamp, Qube384)
Type: cell-based
Details: HEK-NaV1.8 with b3 recombinant cell line, ambient room temperature, read-out: Potency category (human NaV1.8 IC50)
Experimental: The following NaV1.8 recombinant cell line was used for recordings: HEK-NaV1.8 (NM_006514.1) with b3 (NM_018400.3).
Sodium currents were measured using the patch clamp technique in the whole-cell configuration using the Qube384 (Sophion A/S, Copenhagen, Denmark) automated voltage clamp platform. "Multi hole" plates were used for the cell line expressing NaV1.8 while "single hole" plates were used for the recombinant cell lines expressing the other subtypes. Appropriate filters (for minimum seal resistance and minimum current size) and series resistance compensation (for high quality sodium channel recordings) were applied. Data was collected at ambient room temperature.
The recording […] solution contained (in mM): NaCl 145 mM, KCl 4 mM, CaCl2 2 mM, MgCl2 1 mM, HEPES 10 mM, Glucose 10 mM, pH 7.4 (NaOH). The […] recording solution contained (in mM): CsF 120 mM, CsCl 20 mM, NaCl 10 mM, EGTA 10 mM, HEPES 10 mM, pH 7.2 (CsOH). Currents were recorded at 25 kHz sampling frequency and filtered at 5 kHz. Series resistance compensation was applied at 65%.
Vehicle (VEH) is the control condition where cells are exposed to 0.3 % DMSO without compound. All runs include VEH controls being exposed to the same voltage protocols to assess non-compound related phenomena such as run down and then used to isolate compound dependent effects on currents.
To check for state-dependence inhibition, the following voltage-sequence was applied every 20 seconds: From a resting membrane potential of-120 mV, the first test pulse (P1; 20 ms to -10 mV) was applied to check for channels in the Resting State followed by a brief recovery (20 ms to -120 mV), then holding the membrane voltage to V1/2 (4 seconds at voltage to obtain half the channel at Rest and half Inactivated) with a subsequent second test pulse (P2; 20 ms to -10 mV) to check for channels in the Inactivated State, followed by another brief recovery (20 ms to -120 mV) and a final third test pulse (P3; 20 ms to -10 mV) to check for recovered channels.
To check for frequency-dependent inhibition, a 10 Hz protocol and a 20 Hz protocol were applied; namely,
From a resting membrane potential of -120 mV, 40-pulses (10 ms to -10 mV) was applied at 10 Hz (at 100 ms between pulses) and then at 20 Hz (at 50 ms between pulses).
Each parameter was recorded (P1, P2, P3, P40 from 10Hz and P40 from 20Hz) during a control period (lasting ~ 5 minutes) when establishing the baseline and during compound period (lasting ~ 12 minutes) when test compound (or vehicle) was applied. For each parameter, the value at the end of the compound period was normalized to the vehicle baseline; as follows Normalized Inhibition (NormCPD) = (CPD Valueend CPD period)/(VEH Valueend Control Period) [formula]
To adjust for any variance in the Na^+ current signal during the compound period (owing to cumulative inactivation independent of compound or shifts in biophysics over time), a dedicated segment of the recording wells in each 384 plate were dedicated to having only vehicle exposure. These vehicle-only recordings were used to correct for any apparent "run-up" or "run-down" in the experiment. Normalized Inhibition (NormVEH) = (VEH Valueend CPD period)/(VEH Valueend Control Period) [formula]
The adjusted inhibition was calculated as follows: % Inhibitioncorrected = 100 × (NormCPD −NormVEH)/(100−NormVEH) [formula]
Percent inhibition was determined and IC50 values were calculated using a 4 parameter logistic model within XLFit Software (IDBS, Boston MA): % Inhibitioncorrected = A + ((B−A))/((1 + (((x)/(C)))^D) [formula] where A and B are the maximal and minimum inhibition respectively, C is the IC50 concentration and D is the (Hill) slope.

T1 sequence (Q9Y5Y9 whole entry): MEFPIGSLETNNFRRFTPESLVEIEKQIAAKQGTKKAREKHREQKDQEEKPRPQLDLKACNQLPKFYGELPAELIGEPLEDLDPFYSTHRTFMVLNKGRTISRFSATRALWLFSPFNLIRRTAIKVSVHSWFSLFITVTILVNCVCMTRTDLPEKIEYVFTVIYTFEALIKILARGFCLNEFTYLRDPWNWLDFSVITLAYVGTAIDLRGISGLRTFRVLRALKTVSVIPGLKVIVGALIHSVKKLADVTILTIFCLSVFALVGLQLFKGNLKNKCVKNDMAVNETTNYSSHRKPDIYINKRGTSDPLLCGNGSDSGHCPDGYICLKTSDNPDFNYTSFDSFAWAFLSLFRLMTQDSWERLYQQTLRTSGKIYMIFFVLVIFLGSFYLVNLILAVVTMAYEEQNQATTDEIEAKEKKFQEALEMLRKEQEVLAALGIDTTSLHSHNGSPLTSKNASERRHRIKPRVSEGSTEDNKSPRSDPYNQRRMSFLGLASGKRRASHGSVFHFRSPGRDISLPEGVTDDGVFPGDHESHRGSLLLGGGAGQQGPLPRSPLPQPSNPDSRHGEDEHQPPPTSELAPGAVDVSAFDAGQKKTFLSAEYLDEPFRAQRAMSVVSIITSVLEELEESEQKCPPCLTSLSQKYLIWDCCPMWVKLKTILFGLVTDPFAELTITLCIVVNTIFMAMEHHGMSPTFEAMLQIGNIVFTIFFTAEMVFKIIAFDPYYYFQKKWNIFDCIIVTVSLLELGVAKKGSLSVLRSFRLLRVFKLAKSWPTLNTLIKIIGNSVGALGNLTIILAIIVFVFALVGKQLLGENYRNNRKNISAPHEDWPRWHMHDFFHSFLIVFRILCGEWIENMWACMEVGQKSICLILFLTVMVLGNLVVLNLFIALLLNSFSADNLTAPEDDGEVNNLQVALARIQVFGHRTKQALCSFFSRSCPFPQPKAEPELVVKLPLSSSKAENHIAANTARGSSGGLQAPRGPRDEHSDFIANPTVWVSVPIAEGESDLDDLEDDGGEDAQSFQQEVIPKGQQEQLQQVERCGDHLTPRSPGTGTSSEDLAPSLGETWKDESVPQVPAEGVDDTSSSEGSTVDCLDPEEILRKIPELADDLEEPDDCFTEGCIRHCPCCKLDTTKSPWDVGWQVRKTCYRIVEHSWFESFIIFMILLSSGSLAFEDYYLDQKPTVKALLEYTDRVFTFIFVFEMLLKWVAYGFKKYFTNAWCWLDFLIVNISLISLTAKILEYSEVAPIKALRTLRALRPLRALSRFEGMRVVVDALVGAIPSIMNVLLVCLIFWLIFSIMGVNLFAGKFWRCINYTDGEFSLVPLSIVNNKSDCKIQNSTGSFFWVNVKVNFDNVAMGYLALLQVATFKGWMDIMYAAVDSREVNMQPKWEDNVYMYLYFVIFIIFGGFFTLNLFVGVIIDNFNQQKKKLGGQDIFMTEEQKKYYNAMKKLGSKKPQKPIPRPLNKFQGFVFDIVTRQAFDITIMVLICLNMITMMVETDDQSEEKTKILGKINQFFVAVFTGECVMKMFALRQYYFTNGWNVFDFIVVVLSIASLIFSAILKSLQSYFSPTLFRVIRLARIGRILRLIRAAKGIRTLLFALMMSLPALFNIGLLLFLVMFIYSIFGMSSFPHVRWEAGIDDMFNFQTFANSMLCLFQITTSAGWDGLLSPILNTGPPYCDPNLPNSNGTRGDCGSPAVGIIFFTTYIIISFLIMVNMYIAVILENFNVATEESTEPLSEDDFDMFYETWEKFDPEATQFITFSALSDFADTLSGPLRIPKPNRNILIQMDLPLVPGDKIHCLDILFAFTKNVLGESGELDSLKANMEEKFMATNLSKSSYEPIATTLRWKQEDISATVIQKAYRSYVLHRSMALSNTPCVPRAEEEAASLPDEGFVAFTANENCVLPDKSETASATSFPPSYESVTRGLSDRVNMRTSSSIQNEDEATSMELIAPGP
T1 sequence (Q9NY72 23-215 partner): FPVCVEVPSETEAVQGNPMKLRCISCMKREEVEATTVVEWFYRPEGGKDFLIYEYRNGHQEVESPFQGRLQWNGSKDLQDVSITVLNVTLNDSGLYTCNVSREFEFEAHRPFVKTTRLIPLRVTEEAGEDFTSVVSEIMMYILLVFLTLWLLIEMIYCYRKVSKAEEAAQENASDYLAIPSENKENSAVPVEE

SMILES	pIC50
NS(=O)(=O)c1cccc(NC(=O)c2c3ccccc3nn2CC2CCCO2)c1 (racemic) [SC-16, N-(3-sulfamoylphenyl)-2-((tetrahydrofuran-2-yl)methyl)-2H-indazole-3-carboxamide]	5.00 to 6.00
C[C@@H](C1CCCCC1)n1nc2ccccc2c1C(=O)Nc1cccc(S(C)(=O)=O)c1 (single isomer, unassigned) [SC-74a]	6.00 to 7.00
C[C@H](C1CCCCC1)n1nc2ccccc2c1C(=O)Nc1cccc(S(C)(=O)=O)c1 (single isomer, unassigned) [SC-74b]	5.00 to 6.00
Cc1ccc(Cl)c2c(C(=O)Nc3ccnc(C(N)=O)c3)n(CC3CCC(F)(F)C3)nc12 (single isomer, unassigned) [SC-82a, N-(2-carbamoylpyridin-4-yl)-4-chloro-2-((3,3-difluorocyclopentyl)methyl)-7-methyl-2H-indazole-3-carboxamide]	≥ 7.00
Cc1ccc(Cl)c2c(C(=O)Nc3ccnc(C(N)=O)c3)n(CC3CCC(F)(F)C3)nc12 (single isomer, unassigned) [SC-82b, N-(2-carbamoylpyridin-4-yl)-4-chloro-2-((3,3-difluorocyclopentyl)methyl)-7-methyl-2H-indazole-3-carboxamide]	≥ 7.00
Cc1ccc(Cl)c2c(C(=O)Nc3cccc(S(N)(=O)=O)c3)n(CC3CCCCO3)nc12 (single isomer, unassigned) [SC-84a, 4-chloro-7-methyl-N-(3-sulfamoylphenyl)-2-((tetrahydro-2H-pyran-2-yl)methyl)-2H-indazole-3-carboxamide]	≥ 7.00
Cc1cccc2c(C(=O)Nc3ccnc(S(N)(=O)=O)c3)n(C[C@H]3CCCCO3)nc12 (single isomer, unassigned) [SC-88b]	≥ 7.00
O=C(Nc1ccnc(O)c1)c1c2ccc(F)cc2nn1CC1CCC(F)(F)CC1 [SC-06, 2-((4,4-difluorocyclohexyl)methyl)-6-fluoro-N-(2-hydroxypyridin-4-yl)-2H-indazole-3-carboxamide]	6.00 to 7.00
NS(=O)(=O)c1cccc(NC(=O)c2c3ccccc3nn2CC2CCOCC2)c1 [SC-15, N-(3-sulfamoylphenyl)-2-((tetrahydro-2H-pyran-4-yl)methyl)-2H-indazole-3-carboxamide]	6.00 to 7.00
NC(=O)c1cc(NC(=O)c2c3ccccc3nn2CC2CCOCC2)ccc1F [SC-21, N-(3-Carbamoyl-4-fluorophenyl)-2-((tetrahydro-2H-pyran-4-yl)methyl)-2H-indazole-3-carboxamide]	5.00 to 6.00
CS(=O)(=O)c1cccc(NC(=O)c2c3ccccc3nn2CC2CCC(F)(F)CC2)c1 [SC-22, 2-[(4,4-difluorocyclohexyl)methyl]-N-(3-methylsulfonylphenyl)indazole-3-carboxamide]	6.00 to 7.00
O=C(Nc1ccnc(O)c1)c1c2ccccc2nn1CC1CCC(F)(F)CC1 [SC-24, 2-[(4,4-difluorocyclohexyl)methyl]-N-(2-hydroxypyridin-4-yl)indazole-3-carboxamide]	5.00 to 6.00
NC(=O)c1cc(NC(=O)c2c3ccccc3nn2CC2CCC(F)(F)CC2)ccc1F [SC-25, N-(3-carbamoyl-4-fluorophenyl)-2-[(4,4-difluorocyclohexyl)methyl]indazole-3-carboxamide]	6.00 to 7.00
CC(C)(O)c1cccc(NC(=O)c2c3ccccc3nn2CC2CCCCC2)c1 [SC-26, 2-(cyclohexylmethyl)-N-(3-(2-hydroxypropan-2-yl)phenyl)-2H-indazole-3-carboxamide]	5.00 to 6.00
CS(=O)(=O)n1cc(NC(=O)c2c3ccccc3nn2CC2CCCCC2)cn1 [SC-36, 2-(cyclohexylmethyl)-N-(1-(methylsulfonyl)-1H-pyrazol-4-yl)-2H-indazole-3-carboxamide]	6.00 to 7.00
NS(=O)(=O)c1cccc(NC(=O)c2c3ccc(F)cc3nn2CC2CCC(F)(F)CC2)c1 [SC-38, 2-[(4,4-difluorocyclohexyl)methyl]-6-fluoro-N-(3-sulfamoylphenyl)indazole-3-carboxamide]	≥ 7.00
O=C(Nc1ccnc(O)c1)c1c2cccc(C(F)(F)F)c2nn1CC1CCCCC1 [SC-42, 2-(cyclohexylmethyl)-N-(2-hydroxypyridin-4-yl)-7-(trifluoromethyl)indazole-3-carboxamide]	≥ 7.00
CS(=O)(=O)c1cccc(NC(=O)c2c3cccc(C(F)(F)F)c3nn2CC2CCCCC2)c1 [SC-44, 2-(cyclohexylmethyl)-N-(3-methylsulfonylphenyl)-7-(trifluoromethyl)indazole-3-carboxamide]	≥ 7.00

Other lines, results leading:

pIC50	SMILES
≥ 7.00	O=C(Nc1ccnc(O)c1)c1c2ccc(F)cc2nn1CC1CCCCC1 [SC-05, 2-(cyclohexylmethyl)-6-fluoro-N-(2-hydroxypyridin-4-yl)indazole-3-carboxamide]
6.00 to 7.00	O=C(Nc1ccnc(O)c1)c1c2ccccc2nn1CC1CCCCC1 [SC-10, 2-(cyclohexylmethyl)-N-(2-hydroxypyridin-4-yl)-2H-indazole-3-carboxamide]
≥ 7.00	CS(=O)(=O)c1cccc(NC(=O)c2c3ccc(F)cc3nn2CC2CCCCC2)c1 [SC-11, 2-(cyclohexylmethyl)-6-fluoro-N-(3-methylsulfonylphenyl)indazole-3-carboxamide]
5.00 to 6.00	O=C(Nc1cc[nH]c(=O)c1)c1c2ccccc2nn1CC1CCC1 [SC-12, 2-(cyclobutylmethyl)-N-(2-oxo-1,2-dihydropyridin-4-yl)-2H-indazole-3-carboxamide]
6.00 to 7.00	O=C(Nc1ccnc(O)c1)c1c2ccccc2nn1CC1CCCCCC1 [SC-13, 2-(cyclohcptylmethyl)-N-(2-hydroxypyridin-4-yl)indazole-3-carboxamide]
5.00 to 6.00	CS(=O)(=O)c1cccc(NC(=O)c2c3ccccc3nn2CC2CCOCC2)c1 [SC-14, N-(3-methylsulfonylphenyl)-2-(oxan-4-ylmethyl)indazole-3-carboxamide]
≥ 7.00	NC(=O)c1cccc(NC(=O)c2c3ccccc3nn2CC2CCCCC2)c1 [SC-17, N-(3-carbamoylphenyl)-2-(cyclohexylmethyl)indazole-3-carboxamide]
6.00 to 7.00	C[S+]([O-])c1cccc(NC(=O)c2c3ccc(F)cc3nn2CC2CCCCC2)c1 (centres unmarked) [SC-19, 2-(cyclohexylmethyl)-6-fluoro-N-(3-(methylsulfinyl)phenyl)-2H-indazole-3-carboxamide]
6.00 to 7.00	O=C(Nc1ccnc(O)c1)c1c2cccc(F)c2nn1CC1CCCCC1 [SC-20, 2-(cyclohexylmethyl)-7-fluoro-N-(2-hydroxypyridin-4-yl)indazole-3-carboxamide]
≥ 7.00	NS(=O)(=O)c1cccc(NC(=O)c2c3ccc(F)cc3nn2CC2CCCCC2)c1 [SC-28, 2-(cyclohexylmethyl)-6-fluoro-N-(3-sulfamoylphenyl)indazole-3-carboxamide]
6.00 to 7.00	O=C(Nc1ccnc(O)c1)c1c2cc(F)ccc2nn1CC1CCCCC1 [SC-32, 2-(cyclohexylmethyl)-5-fluoro-N-(2-hydroxypyridin-4-yl)indazole-3-carboxamide]
≥ 7.00	CS(=O)(=O)c1cccc(NC(=O)c2c3ccccc3nn2CC2CCCCC2)c1 [SC-37, 2-(cyclohexylmethyl)-N-(3-methylsulfonylphenyl)indazole-3-carboxamide]
5.00 to 6.00	Cn1ccc(NC(=O)c2c3ccccc3nn2CC2CCCCC2)cc1=O [SC-39, 2-(cyclohexylmethyl)-N-(1-methyl-2-oxo-1,2-dihydropyridin-4-yl)-2H-indazole-3-carboxamide]
≥ 7.00	Cc1cccc2c(C(=O)Nc3cc[nH]c(=O)c3)n(CC3CCCCC3)nc12 [SC-43, 2-(cyclohexylmethyl)-7-methyl-N-(2-oxo-1,2-dihydropyridin-4-yl)-2H-indazole-3-carboxamide]

Reference: patent publication EP4385980A1, “INDAZOLES AS INHIBITORS OF NAV1.8” (Grünenthal GmbH, priority 2022, dated 2024)
